Experimental data: patent US9029502B2, “Inhibitors of the epidermal growth factor receptor-heat shock protein 90 binding interaction” (priority 2010, dated 2015)
Ends that are not written are not given here. Peptide text beside a SMILES is read from it. * marks the point of attachment. Biotin = O=C1N[C@H]2[C@H](CS[C@H]2CCCCC(=O)*)N1

How the values were obtained:
C57BL/6 mice = assay: Safety in immune-competent C57BL/6 mice; type: in vivo; conditions: intraperitoneal, 10 and 30 mg/kg; for histological alterations in evaluated organs: 3 days post-injection
Method: Mice were dosed by intraperitoneal injection with 10 and 30 mg/kg of Disruptin, and brain, lung, liver, heart, kidneys, spleen, stomach, small intestine, mesenteric lymph nodes, cecum, colon, pancreas, ovaries, bone marrow, and eyes were evaluated 3 days post-injection.

UMSCC1 cells = assay: Clonogenic cell survival assay, UMSCC1; type: cell-based, human
Method: (§1) Clonogenic assays were performed using standard techniques.^34 The fraction surviving each treatment was normalized to the survival of the control cells. Peptide cell survival curves were fitted using the equation SF=(C50)^m/[(C50)^m+C^m], where SF is the surviving fraction, C is the peptide concentration, C50 is the concentration of peptide that produces a 50% cell survival and m is the slope of the sigmoid curve.
(§2) We then assessed colonogenic survival in head and neck (UMSCC1, UMSCC10B, UMSCC74B), lung (A549, H1975, H3255), and HeLa cancer cells. Normal human esophageal squamous epithelial (Het1A) and lung fibroblast (MRC5) cell lines along with EGFR negative CHO cells were selected to study selectivity.

UMSCC1 xenografts [1] = assay: In vivo tumor growth study, UMSCC1 xenografts; design: species or system mice
Method: (a) To determine if EGFR level was affected in the UMSCC1 xenograft tumor, mice were injected with either DMSO, specific, or non-specific biotinylated peptide (8 mg/kg) intraperitoneally. Three weeks after the injection, tumors (white arrow) along with some adjacent normal tissue (yellow arrow) were harvested. Immunostaining was performed for EGFR and HSP90. HSP90 levels were not affected by either treatment either in tumor or in the adjacent skin tissue. EGFR expression was reduced in the tumor treated with specific peptide relative to normal adjacent skin cells. (b) The effect on tumor growth was also assessed after treatment with two injections separated by 3 days. Tumor volume was recorded every other day during this period, (c) Time to tumor volume doubling was plotted for each treatment condition using Kaplan-Meier method and (d) Comparisons between any two treatment groups was analyzed by log rank tests.
Mice were handled according to the established procedures of the University of Michigan Laboratory Animals Maintenance Manual. To generate tumor xenografts, 2×10^6 UMSCC1 cells were transplanted into the flanks of athymic nude Foxn1^nu mice (Harlan Laboratories). […]
Tumor volume doubling was determined for each xenograft by identifying the earliest day on which it was at least twice as large as on the first day of treatment. […]

UMSCC1 xenografts [2] = assay: Peptide internalization assay in UMSCC1 xenografts; type: in vivo; conditions: 8 mg/kg, i.p., nude mice with UMSCC1 xenografts
Method: Delivery of the peptide to the UMSCC1 xenografts was assessed after injection of peptides (8 mg/kg, i.p.), 3 days later the tumors were removed, cryosections were immunostained for EGFR, and the internalized biotinylated peptide was visualized by Streptavidin Alexa Fluor […] reagent.
The UMSCC1 xenografts were cryopreserved in OCT (Electron Microscopy Sciences). Five μm sections were cut from tissues prepared on days 1 and 3 after peptide treatment. Sections were fixed in cold methanol for 20 min and then were blocked with 1% Bovine Serum Albumin (BSA). The sections were incubated overnight with anti-EGFR antibody (Santa Cruz). After washing, the sections were incubated with anti-rabbit Alexa Fluor 488 (Molecular Probes) and Streptavidin conjugated Alexa Fluor 594 (Molecular Probes). Coverslips were mounted with one drop of Prolong Gold anti-fade reagent with DAPI (4,6-diamidino-2-phenylindole; Molecular Probes) to visualize the nuclei. Fluorescence images were acquired using a DP70 camera fitted on an Olympus 1X-71 microscope.

HSP90 = target: T1, HSP90 (Homo sapiens, UniProt P07900); assay: Peptide binding assay (streptavidin pull-down of biotinylated peptide, HSP90 immunoblot); conditions: UMSCC1 cell lysate; 10, 30 and 100 μg/ml
T1 construct: cell lysates from cancer or normal cells were prepared by 3 freeze-thaw cycles; endogenous in cells; host or cells: UMSCC1, H1975, Het1A, MRC5 (A11); UMSCC1 (A13)
Method: (a) To determine if the lead peptide interacts directly with tumor HSP90, cell lysates from cancer or normal cells were prepared by 3 freeze-thaw cycles and then incubated with 3 μg/ml of specific or non-specific biotin coupled peptides for 2 hours. The peptide was affinity purified using Streptavidin-agarose beads, and bound HSP90 was detected by immunoblotting for HSP90. […] (b) The effect of the treatment with specific and non-specific peptide on HSP90-EGFR interaction was determined by IP of HSP90 followed by IB with EGFR at 24 hours post treatment. […] The increased levels of HSP70 upon GA treatment indicate inhibition of HSP90 activity. (c) Specificity of the peptide treatment compared to GA was evaluated in tumor and normal cells as described in FIG. 3b, by assessing the levels of EGFR and PARP cleavage (marker of apoptotic cell death) at 72 hours post treatment, (d) cell survival was assessed using colony formation assay.
(a) UMSCC1 cell lysate was incubated with three concentrations of specific or non-specific peptide (10, 30 and 100 μg/ml) followed by immunoblotting with anti-HSP90 antibody. […] (b) The effect of EGFR specific peptide on HSP90's ability to bind with ATP was assessed. […] Bound protein was eluted in SDS-PAGE buffer, and the levels were determined by immunoblot analysis. […]

H3255 = assay: Clonogenic cell survival assay, H3255; type: cell-based, human; conditions: cell permeable peptides; H3255, lung cancer, L858R-EGFR
Method: as §1, §2

EGFR = type: in vivo, mice; conditions: UMSCC1 xenograft, 8 mg/kg intraperitoneally
Method: Delivery of the peptide to the UMSCC1 xenografts was assessed after injection of peptides (8 mg/kg, i.p.), 3 days later the tumors were removed, cryosections were immunostained for EGFR, and the internalized biotinylated peptide was visualized by Streptavidin Alexa Fluor 562 reagent.

UMSCC10B = assay: Clonogenic cell survival assay, UMSCC10B; type: cell-based, human; conditions: cell permeable peptides, H&N cancer, WT-EGFR
Method: as §1, §2

Het1A = assay: Clonogenic cell survival assay, Het1A; type: cell-based; conditions: cell permeable peptides, normal human epithelial, WT-EGFR
Method: as §1, §2

A549 = assay: Clonogenic cell survival assay, A549; type: cell-based, human; conditions: cell permeable peptides; A549, lung cancer, WT-EGFR
Method: as §1, §2

MRC5 = assay: Clonogenic cell survival assay, MRC5; type: cell-based; conditions: cell permeable peptides; MRC5, normal human fibroblasts, WT-EGFR
Method: as §1, §2

HeLa = assay: Clonogenic cell survival assay, HeLa; type: cell-based, human; conditions: cell permeable peptides, cervical cancer, WT-EGFR
Method: as §1, §2

H1975 = assay: Clonogenic cell survival assay, H1975; type: cell-based, human; conditions: cell permeable peptides; H1975, lung cancer, T790M-EGFR
Method: as §1, §2

CHO = assay: Clonogenic cell survival assay, CHO; type: cell-based; conditions: cell permeable peptides, hamster ovarian
Method: as §1, §2

EGFR-HSP90 interaction = target: T2, EGFR-HSP90 interaction (Homo sapiens, UniProt P07900); assay: EGFR-HSP90 interaction by immunoprecipitation and immunoblotting; type: cell-based; conditions: 24-hour exposure; cancer cell lines (UMSCC1, H1975); GA 50 nM as positive control
T2 construct: endogenous in cells; host or cells: UMSCC1, H1975, Het1A, MRC5

UMSCC74B = assay: Clonogenic cell survival assay, UMSCC74B; type: cell-based, human; conditions: cell permeable peptides, H&N cancer, WT-EGFR
Method: as §1, §2

COC1=C2C[C@@H](C)C[C@H](OC)[C@H](O)[C@@H](C)/C=C(\C)[C@H](OC(N)=O)[C@@H](OC)/C=C\C=C(/C)C(=O)NC(=CC1=O)C2=O [Geldanamycin, reference compound]
histological alterations in evaluated organs (C57BL/6 mice): histological evidence of toxicity in eye and liver

NHVPSDVC [Peptide 8]
complete blood counts and liver cytosolic enzymes (AST, ALT) (C57BL/6 mice): not significantly different from controls | histological alterations in evaluated organs (C57BL/6 mice): no histological alterations

DEAYVMASVDNPHVCRLLGIC [Peptide 5]
Survival Fraction (UMSCC1 cells; clonogenic survival of UMSCC1 cells, synthetic peptides delivered using Chariot): 1 ± 0.14

CC(C)[C@H](NC(=O)[C@H](Cc1c[nH]cn1)NC(=O)[C@@H]1CCCN1C(=O)[C@H](CC(N)=O)NC(=O)[C@H](CC(=O)O)NC(=O)[C@@H](NC(=O)[C@H](CO)NC(=O)[C@H](CCCNC(=N)N)NC(=O)[C@H](CCCNC(=N)N)NC(=O)[C@H](CCCNC(=N)N)NC(=O)[C@H](CCC(N)=O)NC(=O)[C@H](CCCNC(=N)N)NC(=O)[C@H](CCCNC(=N)N)NC(=O)[C@H](CCCCN)NC(=O)[C@H](CCCCN)NC(=O)[C@H](CCCNC(=N)N)NC(=O)CNC(=O)[C@H](Cc1ccc(O)cc1)NC(=O)CCCC[C@@H]1SC[C@@H]2NC(=O)N[C@@H]21)C(C)C)C(=O)N[C@@H](CS)C(=O)O [Specific Peptide] (Biotin-YGRKKRRQRRRSVDNPHVC-OH; N-terminus and C-terminus assumed)
systemic toxicity (UMSCC1 xenografts [1]; UMSCC1 xenograft mice): No systemic toxicity | time post injection peptide remained detectable in xenografts (UMSCC1 xenografts [2]): 72 h

SVDNPHVC [Peptide 2]
complete blood counts and liver cytosolic enzymes (AST, ALT) (C57BL/6 mice): not significantly different from controls | histological alterations in evaluated organs (C57BL/6 mice): no histological alterations

Biotin-YGRKKRRORRR-NHVPSDVC [Non Specific Peptide]
binding of peptide with HSP90 versus peptide concentration (HSP90): minimal interaction | median tumor doubling time (UMSCC1 xenografts [1]; UMSCC1 xenografts, single dose): 5.5 days | clonogenic survival (surviving fraction) (H3255): 1.0 ± 0.07 | HSP90 levels in tumor or adjacent skin tissue (immunostaining) (EGFR): not affected | clonogenic survival (surviving fraction) (UMSCC10B): 0.98 ± 0.04 | clonogenic survival (surviving fraction) (Het1A): 0.91 ± 0.11 | clonogenic survival (surviving fraction) (UMSCC1 cells): 1.62 ± 0.04 | clonogenic survival (surviving fraction) (A549): 0.81 ± 0.09 | clonogenic survival (surviving fraction) (MRC5): 1.04 ± 0.05 | clonogenic survival (surviving fraction) (HeLa): 0.92 ± 0.08 | clonogenic survival (surviving fraction) (H1975): 0.77 ± 0.17 | clonogenic survival (surviving fraction) (CHO): 1.12 ± 0.14 | EGFR-HSP90 interaction (EGFR-HSP90 interaction): no effect | clonogenic survival (surviving fraction) (UMSCC74B): 0.88 ± 0.10
